Experimental findings from ChEMBL document CHEMBL5728798, “Macrocycles as factor XIA inhibitors” (2021) are described below.

In this experiment the target is Coagulation factor XI (Homo sapiens, UniProt P03951). Put plainly: In Vitro Assays: Factor XIa determinations were made in 50 mM HEPES buffer at pH 7.4 containing 145 mM NaCl, 5 mM KCl, and 0.1% PEG 8000 (polyethylene glycol; JT Baker or Fisher Scientific). Determinations were made using purified human Factor XIa at a final concentration of 25-200 pM (Haematologic Technologies) and the synthetic substrate S-2366 (pyroGlu-Pro-Arg-pNA; CHROMOGENIX® or AnaSpec) at a concentration of 0.0002-0.001 M.
Chain of Coagulation factor XI (P03951 19-387 limits assumed): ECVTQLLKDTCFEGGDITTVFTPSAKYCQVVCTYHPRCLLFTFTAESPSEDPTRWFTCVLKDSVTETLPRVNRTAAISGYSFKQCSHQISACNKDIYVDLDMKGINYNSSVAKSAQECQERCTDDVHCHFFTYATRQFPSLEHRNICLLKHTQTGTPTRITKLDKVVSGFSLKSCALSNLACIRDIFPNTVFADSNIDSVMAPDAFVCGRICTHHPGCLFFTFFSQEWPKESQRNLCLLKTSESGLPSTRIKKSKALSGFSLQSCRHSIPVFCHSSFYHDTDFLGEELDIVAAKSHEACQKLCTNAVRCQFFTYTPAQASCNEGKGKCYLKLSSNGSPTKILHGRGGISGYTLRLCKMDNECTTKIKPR
Chain of Coagulation factor XI (P03951 388-625 limits assumed): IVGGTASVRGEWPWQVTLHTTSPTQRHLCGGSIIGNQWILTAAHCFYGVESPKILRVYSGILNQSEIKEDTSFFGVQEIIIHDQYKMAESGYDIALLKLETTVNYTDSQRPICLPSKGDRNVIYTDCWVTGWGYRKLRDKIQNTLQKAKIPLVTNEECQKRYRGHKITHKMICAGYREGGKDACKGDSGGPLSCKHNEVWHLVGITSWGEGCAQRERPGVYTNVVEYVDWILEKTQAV

Take `COC(=O)Nc1ccc2c(c1)N[C@@H](C(F)F)CCCC[C@H](NC(=O)/C=C/c1cc(Cl)ccc1-n1cnnn1)c1nc-2c[nH]1`: the Ki (as a rule, a dissociation constant, usually derived from enzyme kinetics or from competition with a known ligand) turned out to be 289 nM.
